Where two headings read alike, the source gives them in different places.
Key:
ovulation [1] = assay: inhibition of ovulation, test compound given orally on the day of proestrus; absence of ova in oviduct; type: in vivo; conditions: oral, rat
Protocol: The compounds of the invention are ovulation inhibitors, with a longer duration of action than the monochloromelatonins. The degree of ovulation inhibitory activity was determined according to the following protocol.
Adult female rats with regular estrus cycles of four days each are employed. The estrus cycle consists of 2 days of diestrus followed by a day of proestrus and then a day of estrus. […] On the afternoon of proestrus, luteinizing hormone (LH) is released into the blood by the pituitary gland. The LH travels to the ovary where it induces ovulation, resulting in the presence of eggs in the oviduct on the day of estrus.
The test compound is administered orally at predetermined times on the day of proestrus. The rat is sacrificed on the following day (estrus). The oviduct is removed and examined microscopically for the presence of ova.
In the Table, column 1 gives the name of the compound, column 2 the time of administration and column 3 the percent inhibition of ovulation.

ovulation [2] = conditions: in vivo; cited from earlier work
[3] = tested on: estrous phase of the estrous cycle and ovulation; conditions: mice; cited from earlier work
[4] = tested on: estrous phase of the estrous cycle and ovulation; conditions: rats; cited from earlier work
[5] = time of administration 10:00 a.m.

With `COc1cc2c(CCNC(C)=O)c(C)[nH]c2c(Cl)c1Cl` [2-methyl-6,7-dichloromelatonin] the “Percent Inhibition of ovulation” value (ovulation [1]; time of administration 8:00 a.m.) was 100%.
For `COc1cc2c(CCNC(C)=O)c[nH]c2c(Cl)c1Cl` [6,7-dichloromelatonin, N-acetyl-5-methoxy-6,7-dichlorotryptamine], the “Percent Inhibition of ovulation” value (ovulation [1]; [5]) was 100%.
For `COc1cc2c(CCNC(C)=O)c[nH]c2cc1Cl` [6-chloromelatonin], the ovulation blocking activity (ovulation [2]) is given as “increased ovulation blocking activity” and the “Percent Inhibition of ovulation” value (ovulation [1]; [5]) is given as 0%.
In the case of `COc1cc2c(CCNC(C)=O)c[nH]c2cc1F` [6-fluoromelatonin], the ovulation blocking activity (ovulation [2]) is listed as “increased ovulation blocking activity”.
For `COc1ccc2[nH]cc(CCNC(C)=O)c2c1` [melatonin, N-[2-(5-methoxy-3-indolyl)ethyl]acetamide], the “inhibition of estrous phase of the estrous cycle” value [3] is listed as “inhibited”, the inhibition of ovulation [3] is listed as “inhibited” and the “inhibition of estrous phase of the estrous cycle” value [4] is listed as “inhibited”. The inhibition of ovulation [4] was “inhibited”.
For `COc1cc2c(CC(C)NC(C)=O)c[nH]c2cc1Cl` (stereo not drawn) [α-methyl-6-chloromelatonin], the “effect of α-methyl substitution on ovulation-blocking activity” value (ovulation [2]) is listed as “no significant effect”.
